In patent publication US20240100473A1, “CARBON DIOXIDE ABSORBER” (MITSUBISHI GAS CHEMICAL COMPANY, INC., priority 2021, published 2024):

Assays:
[1] = Maximum carbon dioxide release temperature of amine compound (DSC); format: physicochemical; conditions: amine compound with CO2 absorbed from air for 24 h; DSC 23 to 250° C., 10° C./min, nitrogen atmosphere
Method: The amine compound (A) is heated with carbon dioxide absorbed from 23° C. to 250° C. at 10° C./minute of a heating rate, and a temperature at which an endothermic amount associated with desorption of carbon dioxide reaches a maximum is measured, and this temperature is taken as the maximum carbon dioxide release temperature. Here, the amine compound (A) with carbon dioxide absorbed can be prepared, for example, by allowing 5 mmol of the amine compound (A) to stand in the air at 23° C. and 50% RH for 24 hours.
(Maximum Carbon Dioxide (CO2) Release Temperature of Amine Compound)
After the above evaluation of the absorbed amount of carbon dioxide from the air was completed, the amine compound was removed from the desiccator as the amine compound having carbon dioxide absorbed. The DSC measurement was performed on the amine compound with carbon dioxide absorbed as follows, to measure the maximum carbon dioxide release temperature of the amine compound. First, the differential scanning calorimetry was performed on the amine compound using the differential thermogravimetric analyzer (Product Name: DTG-60 produced by Shimadzu Corporation) under the conditions of 23 to 250° C. of a measurement temperature range, 10° C./min of the heating rate, and the nitrogen atmosphere. From the DSC curve obtained thereby, the temperature at which the endothermic amount associated with the desorption of carbon dioxide reached the maximum was calculated, and the temperature thereof was used as the maximum carbon dioxide release temperature of the amine compound.

[2] = Amine value of amine compound (JIS K7237-1995 titration); format: physicochemical; conditions: 0.1 g in 20 mL acetic acid, titrated with 0.1 N perchloric acid-acetic acid
Method: The amine value can be measured by the following method in accordance with JIS K7237-1995. • (1) Dissolving 0.1 g of the amine compound (A) in 20 mL of acetic acid. • (2) Calculating the amine value by titrating the solution obtained in the above (1) with the 0.1 N perchloric acid-acetic acid solution using the automatic potentiometric titrator (for example, AT-610 produced by Kyoto Electronics Manufacturing Co., Ltd.).
(Amine Value of Amine Compound)
The amine value was measured by the following measurement method in accordance with JIS K7237-1995. • (1) Dissolving 0.1 g of the amine compound in 20 mL of the acetic acid. • (2) Calculating the amine value by titrating the solution obtained in the above (1) with the 0.1 N perchloric acid-acetic acid solution using the automatic potentiometric titrator (AT-610 produced by Kyoto Electronics Manufacturing Co., Ltd.).

[3] = Acid dissociation constant (pKa) by acid-base titration; format: physicochemical; conditions: 0.2 g in 30 mL purified water, 25±2° C.
Method: In the present embodiments, the acid dissociation constant of the amine compound (A) is a value obtained by the following measurement method based on an acid-base titration method. • (1) Dissolving 0.2 g of the amine compound (A) in 30 mL of purified water. • (2) Calculating the acid dissociation constant (pKa) by titrating the solution obtained in the above (1) with 0.1 N perchloric acid-acetic acid solution using an automatic potentiometric titrator (for example, AT-610 produced by Kyoto Electronics Manufacturing Co., Ltd.).
(Acid Dissociation Constant (pKa) of Amine Compound)
The acid dissociation constant of the amine compound was determined by the following method. • (1) Dissolving 0.2 g of the amine compound in 30 mL of the purified water. • (2) Calculating the acid dissociation constant (pKa) by titrating the solution obtained in the above (1) with the 0.1 N perchloric acid-acetic acid solution using the automatic potentiometric titrator (AT-610 produced by Kyoto Electronics Manufacturing Co., Ltd.).
Still, let the temperature at the time of measurement be 25±2° C.

[4] = Evaluation of absorbed amount of carbon dioxide from air (desiccator); conditions: 5 mmol amine compound in desiccator, air 23° C. and 50% RH, initial CO2 about 400 ppm, after 24 hours
Method: (Evaluation of Absorbed Amount of Carbon Dioxide from Air)
A carbon dioxide concentration meter and a petri dish were placed inside an openable desiccator (Internal Dimension: 370 mm×260 mm×272 mm). The amine compound (5 mmol) was then added to the petri dish in the desiccator, a door was immediately closed, and the carbon dioxide concentration in the desiccator was measured over time for 24 hours under an air environment of 23° C. and 50% RH. The initial concentration of carbon dioxide was adjusted to about 400 ppm. Changes of the carbon dioxide concentration in the desiccator 24 hours after the amine compound was placed in the desiccator are shown in Table 1. Here, it is meant that the greater the change of the carbon dioxide concentration in the desiccator is, the greater the amount of the carbon dioxide absorbed by the carbon dioxide absorbent is.

[5] = Maximum endothermic temperature of amine compound (DSC); format: physicochemical; conditions: DSC 23 to 350° C., 10° C./min, nitrogen atmosphere; volatilization of amine compound
Method: Heating the amine compound (A) from 23° C. to 350° C. at 10° C./minute of the heating rate, measuring a temperature at which an endothermic amount associated with the volatilization of the amine compound (A) reaches a maximum, and letting this temperature be the maximum endothermic temperature of the amine compound (A).
(Maximum Endothermic Temperature of Amine Compound)
DSC measurements were performed on the amine compounds used in Examples and Comparative Examples to measure the maximum endothermic temperature of the amine compounds as follows. First, a differential scanning calorimetry was performed on the amine compounds using a differential thermogravimetric analyzer (Product Name: DTG-60 produced by Shimadzu Corporation) under conditions of 23 to 350° C. of a measurement temperature range, 10° C./min of a heating rate, and a nitrogen atmosphere. From the DSC curve obtained thereby, the temperature at which the endothermic amount associated with the volatilization of the amine compound reached the maximum was calculated, and the temperature thereof was used as the maximum endothermic temperature of the amine compound.

| SMILES | Maximum CO2 Release Temperature [1] [°C] | Amine Value [2] [mgKOH/g] | pKa [3] | Evaluation of CO2 Absorbed Amount: Changes of CO2 Concentration, 24h [4] [ppm] | Maximum Endothermic Temperature [5] [°C] |
| --- | --- | --- | --- | --- | --- |
| NCCNCCN [Comparative Example 2, Diethylenetriamine, reference compound] | 127.8 | 1632 | 9.7 | 300 | 127.8 |
| NCc1ccco1 [Example 6, Furfurylamine] | 66.7 | 578 | 9.2 | 188 | 92.4 |
| NCc1cccc(CN)c1 [Comparative Example 1, Meta-xylylenediamine, reference compound] | 135.5 | 824 | 9.5 | 329 | 183.5 |
| NCC1CCC(CN)O1 (stereo not drawn) [Example 1, 2,5-bis(aminomethyl)tetrahydrofuran] | 80.3 | 862 | 9.4 | 300 | 155.9 |
| Cc1ccc(CN)o1 [Example 7, 5-methylfurfurylamine] | 80.7 | 505 | 9.2 | 226 | 115.3 |
| NCCN1CCOCC1 [Example 4, 4-(2-aminoethyl)morpholine] | 81.5 | 862 | 10.1 | 400 | 145.0 |
| NCc1ccc(CN)o1 [Example 2, 2,5-bisaminomethylfuran] | 85.0 | 890 | 9 | 306 | 154.2 |
| NCc1cccs1 [Example 5, 2-thiophenemethylamine] | 83.6 | 496 | 9.5 | 249 | 140.1 |
| NCC1CCOCC1 [Example 3, 4-aminomethyltetrahydropyran] | 111.0 | 487 | 10 | 389 | 127.4 |
